Source: patent US20260347401A1, “Peptide Fragment And Use Thereof” (TOAGOSEI CO., LTD., priority 2023, published 2026)
FAM = 5(6)-carboxyfluorescein

System: NSC-34 cells
Experiment: Evaluation of cell membrane permeability by flow cytometry (fluorescence of FAM taken up by NSC-34 cells)
Assay type: cell-based, mouse
Settings: for cell membrane permeability: peptide fragment, tested as FAM construct, conclusion in words; for median fluorescence intensity (MFI): 10 μM in culture solution, 0.50% DMSO, 37 °C, 5% CO2, flow cytometer detector FL2; for median fluorescence intensity (MFI) / MFI compared with Example 3 (FAM): 20 hours; for MFI compared with Example 3 (FAM): 10 μM, result in words
Method: As the eukaryotic cells, NSC-34 cells (mouse motor neuron-like hybrid cell line) were used and the cell membrane permeability of the prepared construct was evaluated.
The NSC-34 cell was cultured in 10% fetal bovine serum (FBS)-containing Dulbecco's modified Eagle's medium (DMEM (Cat No. 044-29765, manufactured by FUJIFILM Wako Pure Chemical Corporation)), which is a culture medium.
The NSC-34 cell that adhered to a culture plate was cleaned with PBS and then, a 0.25%-trypsin/EDTA solution was added thereto, and incubation was performed for three minutes at 37 °C. After the incubation, the aforementioned 10% FBS-containing DMEM was added to deactivate trypsin and then, five-minute centrifugal separation was performed at 150×g to precipitate the cells. After the supernatant generated by the centrifugal separation was removed, the 10% FBS-containing DMEM was added to the precipitate (cell pellet) to prepare a cell suspension of about 2×10^5 cells/mL. The cell suspension was added by 1 mL to a well of a commercially available six-hole (well) plate (manufactured by AGC TECHNO GLASS Co., Ltd.) so as to seed the cell (about 2×10^5 cells/well), and incubation was caried out for about two to three hours until the cell adhered to a bottom surface of the well. After that, the 2 mM sample solution 1 prepared as above was diluted with the 10% FBS-containing DMEM to prepare the sample solution 1 in which the concentration of the sample was 20 μM. Then, 1 mL of the 20 μM sample solution 1 was added to the well (that is, so that the concentration of the construct 1 became 10 μM and the DMSO concentration became 0.50% in the culture solution in the well). The cell was incubated for 20 hours at 37 °C under a 5% CO2 condition.
After the 20-hour incubation, the culture supernatant was removed from the well and the cells in the well were cleaned twice with 1 mL of PBS. Next, 100 μL of the 0.25% trypsin/EDTA solution was added to the well and the incubation was performed for three minutes at 37 °C. After the incubation, 900 μL of the 10% FBS-containing DMEM was added to the well to deactivate the trypsin. The cell suspension in the well was transferred to a tube and the cells were collected. After that, pre-washing was performed additionally, so that the cells remaining in the well were collected in the tube. This tube was subjected to five-minute centrifugal separation at 4 °C under a condition of 210×g. After the centrifugal separation, the supernatant was removed and the precipitate (cell pellet) was suspended (cleaned) with 1 mL of PBS, which was followed by the centrifugal separation under the same condition as that described above. Then, the supernatant was removed and thus, the cells (cell pellet) cultured in a culture medium containing the sample were obtained.
Regarding the obtained cells (cell pellet), the cell membrane permeability was analyzed using a flow cytometer. As the flow cytometer, On-Chip Flowcytometer (manufactured by On-Chip Biotechnologies Co., LTD.) was used.
For such an analysis, the obtained cell pellet was suspended with 50 μL of on-chip T buffer to prepare a cell suspension for analysis.
Using the aforementioned flow cytometer, gating based on forward scatter (FSC) and side scatter (SSC) was performed to set a gate about a cell group to be analyzed, and the fluorescence intensity was measured about the cell group in this gate. Note that the number of cells of the cell group to be analyzed was set to at least 10000, and the analysis was performed. The fluorescence intensity was measured using a fluorescence detector FL2 of the flow cytometer (optimum detection wavelength around 543 nm) capable of detecting the fluorescence wavelength of FAM. Regarding this measurement result, the analysis was performed using commercially available analysis software “FlowJo” (manufactured by TreeStar) to obtain median fluorescence intensity (MFI) of the cell group to be measured (see Table 1). […]

Row | Substance | cell membrane permeability | median fluorescence intensity (MFI) | MFI compared with Example 3 (FAM)
1 | VLSRVQLREKLTR [SEQ ID No.: 2, peptide fragment (synthetic peptide) having cell membrane permeability] | has the cell membrane permeability |  | 
2 | VLSRVVQLLREKLTRKK [SEQ ID No.: 1, peptide fragment (synthetic peptide) having cell membrane permeability] | has the cell membrane permeability |  | 
3 | Ac-VLSRVVQLLREKLTRKK-FAM [Example 1] |  | 30.4 | higher
4 | Ac-VLSRVQLREKLTR-FAM (Ac-VLSRVQLREKLTR-{FAM}) [Example 2] |  | 31.3 | higher
5 | 5(6)-carboxyfluorescein [Example 3, reference compound] |  | 7.28 | 
